Biological target: human μ-opiate receptor (Homo sapiens, UniProt P35372)
Assay: Affinity for the human μ-opiate receptor ([3H]-naloxone displacement, SPA, CHO-K1 membrane preparation)
Assay type: binding
Conditions: for inhibition at 1 µM: read-out: μ-Opioid receptor, % inhibition [1 μM]; for Ki: read-out: μ-Opioid receptor, Ki

human μ-opiate receptor, sequence (P35372 whole entry): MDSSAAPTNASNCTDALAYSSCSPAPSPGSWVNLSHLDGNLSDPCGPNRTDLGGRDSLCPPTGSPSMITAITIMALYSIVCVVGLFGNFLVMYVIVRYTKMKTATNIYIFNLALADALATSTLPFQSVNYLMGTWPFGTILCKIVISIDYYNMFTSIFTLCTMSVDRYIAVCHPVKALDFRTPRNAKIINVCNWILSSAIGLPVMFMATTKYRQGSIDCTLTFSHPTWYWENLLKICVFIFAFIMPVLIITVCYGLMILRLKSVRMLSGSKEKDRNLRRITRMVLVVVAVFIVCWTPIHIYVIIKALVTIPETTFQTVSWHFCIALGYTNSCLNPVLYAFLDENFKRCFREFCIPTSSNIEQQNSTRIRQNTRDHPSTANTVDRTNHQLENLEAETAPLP

Compound	inhibition at 1 µM	Ki
CC(=O)N(C(C)Cc1c[nH]c2ccccc12)C1CCC(C(c2ccccc2)N(C)C)CC1 (stereo not shown) [compound 178, N-(1-(1H-indol-3-yl)propan-2-yl)-N-(4-((dimethylamino)(phenyl)methyl)-cyclohexyl)acetamide]	96%	1.2 nM
CC(=O)N(Cc1ccc(F)cc1)C1CCC(C(c2ccccc2)N(C)C)CC1 (stereo not shown) [compound 179, N-(4-((dimethylamino)(phenyl)methyl)cyclohexyl)-N-(4-fluorobenzyl)acetamide]	99%	3 nM
CCCC(=O)N(c1ccccc1)C1CCC(C(c2ccccc2)N(C)C)CC1 (stereo not shown) [compound 180, N-(4-((dimethylamino)(phenyl)methyl)cyclohexyl)-N-phenylbutyramide]	90%	
CCCC(=O)N(CCc1c[nH]c2ccccc12)C1CCC(C(c2ccccc2)N(C)C)CC1 (stereo not shown) [compound 181, N-(2-(1H-indol-3-yl)ethyl)-N-(4-((dimethylamino)(phenyl)methyl)-cyclohexyl)butyramide]	95%	3.9 nM
CC(=O)N(CCc1c[nH]c2ccccc12)C1CCC(C(c2ccccc2)N(C)C)CC1 (stereo not shown) [compound 182, N-(2-(1H-indol-3-yl)ethyl)-N-(4-((dimethylamino)(phenyl)methyl)cyclohexyl)-acetamide]	95%	2.1 nM
CN(C)C(c1ccccc1)C1CCC(NC(=O)c2csc3ccccc23)CC1 (stereo not shown) [compound 183, benzo[b]thiophene-3-carboxylic acid [4-(dimethylamino-phenyl-methyl)-cyclohexyl]-amide]	103%	3.9 nM
CN(C)C(c1ccccc1)C1CCC(NC(=O)C2(c3ccc(Cl)cc3)CCCC2)CC1 (stereo not shown) [compound 184, 1-(4-chloro-phenyl)-cyclopentanecarboxylic acid [4-(dimethylamino-phenyl-methyl)-cyclohexyl]-amide]	101%	5.2 nM
CCCc1ccc(C(=O)NC2CCC(C(c3cccs3)N(C)C)CC2)cc1 (stereo not shown) [compound 185, N-[4-(dimethylamino-thiophen-2-yl-methyl)-cyclohexyl]-4-propyl-benzamide]	100%	37 nM
CN(C)C(c1cccs1)C1CCC(NC(=O)c2cccc(C#N)c2)CC1 (stereo not shown) [compound 186, 3-cyano-N-[4-(dimethylamino-thiophen-2-yl-methyl)-cyclohexyl]-benzamide]	100%	18 nM
CN(C)C(c1ccccc1)C1CCC(NC(=O)c2cccc(Cl)c2)CC1 (stereo not shown) [compound 187, 3-chloro-N-[4-(dimethylamino-phenyl-methyl)-cyclohexyl]-benzamide]	100%	8.5 nM
COc1c(C(=O)NC2CCC(C(c3ccccc3)N(C)C)CC2)csc1Cl (stereo not shown) [compound 188, 5-chloro-4-methoxy-thiophene-3-carboxylic acid [4-(dimethylamino-phenyl-methyl)-cyclohexyl]-amide]	100%	5.2 nM
CN(C)C(c1ccccc1)C1CCC(NC(=O)c2ccc(Cl)c(Cl)c2)CC1 (stereo not shown) [compound 189, 3,4-dichloro-N-[4-(dimethylamino-phenyl-methyl)-cyclohexyl]-benzamide]	99%	11 nM
CN(C)C(c1ccccc1)C1CCC(NC(=O)c2cc(F)cc(C(F)(F)F)c2)CC1 (stereo not shown) [compound 190, N-[4-(dimethylamino-phenyl-methyl)-cyclohexyl]-3-fluoro-5-trifluoromethyl-benzamide]	99%	25 nM
COc1c(C(=O)NC2CCC(C(c3cccc(F)c3)N(C)C)CC2)csc1Cl (stereo not shown) [compound 191, 5-chloro-4-methoxy-thiophene-3-carboxylic acid {4-[dimethylamino-(3-fluoro-phenyl)-methyl]-cyclohexyl}-amide]	99%	
CN(C)C(c1cccs1)C1CCC(NC(=O)c2ccc(F)c(C(F)(F)F)c2)CC1 (stereo not shown) [compound 192, N-[4-(dimethylamino-thiophen-2-yl-methyl)-cyclohexyl]-4-fluoro-3-trifluoromethyl-benzamide]	98%	18 nM
CN(C)C(c1cccs1)C1CCC(NC(=O)c2cccs2)CC1 (stereo not shown) [compound 193, thiophene-2-carboxylic acid [4-(dimethylamino-thiophen-2-yl-methyl)-cyclohexyl]-amide]	96%	23 nM
CN(C)C(c1cccs1)C1CCC(NC(=O)c2cc(Cl)cc(Cl)c2)CC1 (stereo not shown) [compound 194, 3,5-dichloro-N-[4-(dimethylamino-thiophen-2-yl-methyl)-cyclohexyl]-benzamide]	96%	5.3 nM
COc1c(C(=O)NC2CCC(C(c3cccs3)N(C)C)CC2)csc1Cl (stereo not shown) [compound 195, 5-chloro-4-methoxy-thiophene-3-carboxylic acid [4-(dimethylamino-thiophen-2-yl-methyl)-cyclohexyl]-amide]	96%	15 nM
CN(C)C(c1ccccc1)C1CCC(NC(=O)c2cc(F)c(F)cc2F)CC1 (stereo not shown) [compound 196, N-[4-(dimethylamino-phenyl-methyl)-cyclohexyl]-2,4,5-trifluoro-benzamide]	96%	19 nM
CN(C)C(c1ccccc1)C1CCC(NC(=O)c2cccc(Br)c2)CC1 (stereo not shown) [compound 197, 3-bromo-N-[4-(dimethylamino-phenyl-methyl)-cyclohexyl]-benzamide]	96%	16 nM
Cc1ccc(C(=O)NC2CCC(C(c3cccs3)N(C)C)CC2)cc1 (stereo not shown) [compound 198, N-[4-(dimethylamino-thiophen-2-yl-methyl)-cyclohexyl]-4-methyl-benzamide]	95%	15 nM
COc1cccc(C(=O)NC2CCC(C(c3cccs3)N(C)C)CC2)c1 (stereo not shown) [compound 199, N-[4-(dimethylamino-thiophen-2-yl-methyl)-cyclohexyl]-3-methoxy-benzamide]	94%	21 nM
CN(C)C(c1cccs1)C1CCC(NC(=O)CC(C)(C)C)CC1 (stereo not shown) [compound 200, N-[4-(dimethylamino-thiophen-2-yl-methyl)-cyclohexyl]-3,3-dimethyl-butyramide]	94%	29 nM
Cc1cc(C(=O)NC2CCC(C(c3cccs3)N(C)C)CC2)n(C(C)(C)C)n1 (stereo not shown) [compound 201, 2-tert-butyl-5-methyl-2H-pyrazole-3-carboxylic acid [4-(dimethylamino-thiophen-2-yl-methyl)-cyclohexyl]-amide]	94%	16 nM
COc1ccc(C(=O)NC2CCC(C(c3cccs3)N(C)C)CC2)c(OC)c1 (stereo not shown) [compound 202, N-[4-(dimethylamino-thiophen-2-yl-methyl)-cyclohexyl]-2,4-dimethoxy-benzamide]	94%	31 nM
CN(C)C(c1ccccc1)C1CCC(NC(=O)c2cccc(C(F)(F)F)c2)CC1 (stereo not shown) [compound 203, N-[4-(dimethylamino-phenyl-methyl)-cyclohexyl]-3-trifluoromethyl-benzamide]	94%	51 nM
CN(C)C(c1cccc(F)c1)C1CCC(NC(=O)c2cc(F)cc(F)c2)CC1 (stereo not shown) [compound 204, N-{4-[dimethylamino-(3-fluoro-phenyl)-methyl]-cyclohexyl}-3,5-difluoro-benzamide]	94%	18 nM

Reference: patent US8058475B2, “Substituted cyclohexylmethyl compounds” (Gruenenthal GmbH, priority 2005, dated 2011)
